{
  "source": "patent US11666554B2",
  "about": "“Use of a carbamate compound to prevent, alleviate or treat visceralgia or pain arising from visceral disease” (SK BIOPHARMACEUTICALS CO., LTD., priority 2017, dated 2023)",
  "tested_on": "Male ICR mice",
  "assay": "Acetic acid-induced writhing test",
  "type": "in vivo",
  "settings": "for Number of writhing: mean ± standard error",
  "method": "As a representative animal experimental model widely used to confirm the analgesic effect on visceral pain, an acetic acid-induced writhing test is used [T. J. Ness, Models of Visceral Nociception (1999) ILAR Journal 40: 119-128]. At this time, acetic acid is a chemical that is a stimulus used to induce pain, and when it is injected into the abdominal cavity of the mouse, characteristic writhing pain behaviors are induced in which due to the inflammatory pain caused in the peritoneum the mouse stretches both the forelimbs and the hind legs, and touches the abdomen to the floor or twists. However, when a drug having an analgesic effect, such as morphine, is injected into a mouse, the writhing pain behaviors of the mouse is reduced. As such, the degree of decreasing the writhing pain behaviors is measured to confirm the analgesic effect of the drug.\nMale ICR mice (body weight: 24 to 30 g) were used in this experiment. The experimental animals were maintained at a light-and-darkness cycle of 12 hours, a temperature of 22 to 25° C., a relative humidity of 40 to 60%, and free access to water and food. For stabilization of animal behavior, the experimental animals were allowed to acclimate to the laboratory conditions for at least 1 hour before the test.\nAs a vehicle serving as the negative control, 30% PEG400 (v/v) was used, and Test Compound was dissolved in the vehicle and administered orally at doses of 3, 10 and 30 mg/kg. Morphine which is the positive control was dissolved in saline and administered subcutaneously at a dose of 10 mg/kg. The final dose of solution was 10 ml/kg.\nAfter 1 hour of oral administration of the vehicle and Test Compound or 30 minutes after subcutaneous administration of morphine, the mice were gently restrained, and 0.8% (v/v) acetic acid solution was administered intraperitoneally to the abdomen of the mice. The mice were immediately returned to the observation box, and the number of writhing pain behaviors of the mice for 10 minutes was recorded.\nThe effect of the compound was expressed as the mean±standard error, and statistical significance was recognized when data differed by p<0.05 using one-way ANOVA and Dunnett's test.",
  "note": "Marks after values point to notes of the source that are not given here.",
  "data": [
    {"smiles": "CN1CC[C@]23c4c5ccc(O)c4O[C@H]2[C@@H](O)C=C[C@H]3[C@H]1C5", "note": "[Morphine, reference compound]", "values": [
      {"measurement": "Suppression rate compared to negative control", "setting": "10 mg/kg s.c.", "result": 98.2, "unit": "%"},
      {"measurement": "Number of writhing", "setting": "10 mg/kg s.c., 30 minutes before i.p. 0.8% acetic acid", "result": "0.4 ± 0.3^1) writes/10 minutes"},
      {"measurement": "Suppression rate compared to negative control", "setting": "10 mg/kg s.c., listed as morphine", "result": 98.2, "unit": "%"}
    ]},
    {"smiles": "NC(=O)O[C@@H](Cn1ncnn1)c1ccccc1Cl", "note": "[Test Compound, Carbamic acid (R)-1-(2-chlorophenyl)-2-tetrazol-2-yl-ethyl ester]", "values": [
      {"measurement": "Suppression rate compared to negative control", "setting": "3 mg/kg p.o.", "result": 25.8, "unit": "%"},
      {"measurement": "Number of writhing", "setting": "3 mg/kg p.o., 1 hour before i.p. 0.8% acetic acid", "result": "17.3 ± 2.6", "unit": "writes/10 minutes"},
      {"measurement": "Suppression rate compared to negative control", "setting": "10 mg/kg p.o.", "result": 66.1, "unit": "%"},
      {"measurement": "Number of writhing", "setting": "10 mg/kg p.o., 1 hour before i.p. 0.8% acetic acid", "result": "7.9 ± 2.4^1) writes/10 minutes"},
      {"measurement": "Suppression rate compared to negative control", "setting": "30 mg/kg p.o.", "result": 100, "unit": "%"},
      {"measurement": "Number of writhing", "setting": "30 mg/kg p.o., 1 hour before i.p. 0.8% acetic acid", "result": "0.0 ± 0.0^1) writes/10 minutes"}
    ]}
  ]
}
